According to patent US8497298B2, “Use of benzo-fused heterocycle sulfamide derivatives for lowering lipids and lowering blood glucose levels” (Janssen Pharmaceutica NV, priority 2005, dated 2013):

Legend:
[1] = tested on: db/db mice; test: Female db/db Mouse Assay, Study A: single dose part and dose response part (Example 14); format: in vivo
From the text: 0.5% Hydroxypropyl Methylcellulose (Methocel) used as vehicle/control.
Db/db mice are susceptible to Type 2 diabetes. […] All of the mice were quarantined for a period of one week before transfer to the animal procedure room. A drop of blood (about 2 microliters) was collected by tail puncture and glucose concentration was detected with a glucometer (OneTouch UltraSmart, Lifescan, Milpitas, Calif.). […] Animals were separated and single housed at least three days prior to the drug treatments to allow acclimation to the new surroundings.
In the second, dose response part of Study A, 48 mice were allocated into 4 treatment groups of 12 mice each.
The dosing volume was 5 mL/kg body weight (0.2 mL for 40 gram mice). The mice were fed ad lib throughout the study. A necropsy was completed 18 hours after last dosing.
Blood glucose levels were measured from blood collected through tail puncture using a glucometer at 1000 hour. The mice were anaesthetized with sodium pentobarbital (1 ml/kg, intraperitoneal [i.p.] injection, SleepAway, Fort Dodge, Iowa) and blood was drawn via cardiac puncture using 1 mL syringe and collected into heparinized tubes. White adipose tissues (WAT) (retroperitoneal and inguinal fat pads), brown adipose tissure (BAT) and skeletal muscles (gastrocnemius and soleus muscle) and stomach contents were dissected and weighed. Plasma samples were obtained by centrifuging whole blood at 2000˜3000 g for 10˜20 minutes at 4° C. and stored at −20° C. for further measurement of insulin, HDL, LDL, total cholesterol and triglyceride.
Plasma insulin concentrations were measured by in both studies using the appropriate rat/mouse insulin enzyme-linked immunosorbent assay (ELISA) kit (EZRMI-13K, LINCO Research, St. Charles, Mo.). Blood samples were diluted 1:4 in charcoal stripped mouse serum that was included in the ELISA kit. The rest of the procedure followed the manufacturers instruction. The total fluorescence was detected using an Orion 1 Microplate Luminometer (Berthold Detection Systems, Pforzheim, Germany).
According to manufacturers protocol, cholesterol measurement was an enzymatic method utilizing cholesterol esterase and cholesterol oxidase conversion followed by a Trinder endpoint; Elimination/catalase method was used for HDL measurement; an enzymatic method with a Trinder endpoint was used for triglyceride measurement.
Data from both parts of the Study (single dose and dose response) was analyzed using the standard two-tailed Student's t-test and are expressed below as means and standard errors.

[2] = single dose part, rosiglitazone 20 mg/kg
[3] = single dose part, rosiglitazone 20 mg/kg positive control
[4] = single dose part, rosiglitazone 20 mg/kg, plasma

Structure (SMILES)	total cholesterol concentrations elevated relative to vehicle ([1]; rosiglitazone, dose not given) [%]	Brown Adipose Tissue [1, 2] [g]	Final weight Body weight [1, 2] [g]	Final weight Stomach contents [1, 2] [g]	Inguinal fat [1, 2] [g]	Muscle [1, 2] [g]	Retroperitoneal fat [1, 2] [g]	Total chow consumption Day 1-3 [1, 2] [g]	Total chow consumption Day 4-6 [1, 2] [g]	Total chow consumption Day 7-9 [1, 2] [g]	Glucose [1, 3] [mg/dL]	Insulin [1, 3] [ng/mL]	Cholesterol [1, 4] [mg/dL]	HDL [1, 4] [mg/dL]	LDL [1, 4] [mg/dL]	Ratio (Triglyceride to HDL) [1, 4]	Triglyceride [1, 4] [mg/dL]	Ratio (fat/muscle) ([1]; single dose part, rosiglitazone 20 mg/kg, total inguinal and retroperitoneal fat/muscle weight)	weight gain ([1]; single dose part, rosiglitazone, p<0.05 vs vehicle 0.3±0.2 g) [g]	melting point [°C]
CN(CCOc1ccc(CC2SC(=O)NC2=O)cc1)c1ccccn1 (centres unmarked) [Rosiglitazone, rosiglitazone, reference compound]	35.1	0.32 ± 0.02	43 ± 1.0	0.32 ± 0.04	2.44 ± 0.11	0.154 ± 0.00	1.45 ± 0.10	21 ± 0.8	22 ± 0.9	19 ± 0.7	170 ± 23	11.2 ± 2.3	123 ± 8	62.5 ± 3.2	3.3 ± 0.3	1.6 ± 0.3	105 ± 23	25.4 ± 1.6	3.1 ± 0.4	
NS(=O)(=O)NCC1CCc2ccccc2O1 (centres unmarked) [Compound #10, Chroman-2-ylmethylsulfamide]																				100 to 101
